Activity calls are given as the source filed them. The rule behind the calls is not given here.
Tested on: PC-12
Assay: Neuroprotective activity against okadaic acid-induced cell injury in rat PC12 cells assessed as cell viability at 10 uM after 48 hrs by MTT assay (reference value: 60.4 +/- 23%)
Assay type: functional
Conditions: for viability at 10 µM: PC-12, 48 h, read-out: Activity

SMILES | viability at 10 µM | Activity
CC(=O)OC[C@@]12[C@@H](OC(=O)c3ccoc3)CC[C@@H](C)[C@]13OC(C)(C)[C@H]([C@@H](OC(C)=O)[C@H]2OC(=O)c1cccnc1)[C@H]3OC(C)=O | 72.4% | –
CC(=O)OC[C@@]12[C@@H](OC(C)=O)CC[C@@H](C)[C@]13OC(C)(C)[C@H]([C@@H](OC(C)=O)[C@H]2OC(=O)c1cccnc1)[C@H]3OC(=O)c1ccoc1 | 71.5% | –
CC(=O)OC[C@@]12[C@@H](OC(=O)c3ccoc3)CC[C@@H](C)[C@]13OC(C)(C)[C@H]([C@@H](OC(C)=O)[C@H]2OC(=O)c1cccnc1)[C@H]3OC(=O)c1ccoc1 | – | inactive
CC(=O)OC[C@@]12[C@@H](OC(=O)/C=C/c3ccccc3)CC[C@](C)(O)[C@]13OC(C)(C)[C@H]([C@@H](OC(C)=O)[C@H]2OC(=O)c1ccoc1)[C@H]3O | – | inactive
CC(=O)O[C@@H]1[C@H]2[C@@H](O)[C@@H](OC(=O)c3ccoc3)[C@]3(CO)[C@@H](OC(=O)/C=C/c4ccccc4)CC[C@](C)(O)[C@@]13OC2(C)C | – | inactive
CC(=O)OC[C@@]12[C@@H](OC(=O)/C=C/c3ccccc3)CC[C@@H](C)[C@]13OC(C)(C)[C@H]([C@@H](OC(C)=O)[C@H]2OC(=O)c1cccnc1)[C@H]3OC(C)=O | 81.2% | –
CC(=O)OC[C@@]12[C@@H](OC(=O)/C=C\c3ccccc3)CC[C@](C)(O)[C@]13OC(C)(C)[C@H]([C@@H](OC(C)=O)[C@H]2OC(=O)c1ccoc1)[C@H]3O | – | inactive
CC(=O)OC[C@@]12[C@@H](OC(=O)/C=C\c3ccccc3)CC[C@](C)(O)[C@]13OC(C)(C)[C@H](C(=O)[C@H]2OC(=O)c1ccoc1)[C@H]3O | – | inactive
CC(=O)OC[C@@]12[C@@H](OC(=O)/C=C\c3ccccc3)CC[C@@H](C)[C@]13OC(C)(C)[C@H]([C@@H](OC(C)=O)[C@H]2OC(=O)c1cccnc1)[C@H]3OC(C)=O | 75.7% | –
CC(=O)OC[C@]12[C@H](OC(C)=O)[C@H](OC(C)=O)[C@@H]3[C@@H](OC(=O)c4ccccc4)[C@@]14OC3(C)COC(=O)c1cccnc1C(C)C(C)C(=O)O[C@@H]([C@H](O)[C@@H]2OC(=O)c1ccccc1)[C@]4(C)O (stereo partly drawn) | 86.2% | –
CC(=O)OC[C@@]12[C@@H](OC(=O)/C=C/c3ccccc3)CC[C@](C)(O)[C@]13OC(C)(C)[C@H]([C@@H](O)[C@H]2O)[C@H]3OC(C)=O | – | inactive
CC(=O)OC[C@@]12[C@@H](OC(=O)/C=C/c3ccccc3)CC[C@](C)(O)[C@]13OC(C)(C)[C@H]([C@@H](O)[C@H]2OC(=O)c1ccoc1)[C@H]3OC(C)=O | – | inactive
CC(=O)OC[C@@]12[C@@H](OC(=O)/C=C/c3ccccc3)CC[C@](C)(O)[C@]13OC(C)(C)[C@H](C(=O)[C@H]2OC(=O)c1ccoc1)[C@H]3O | – | inactive

From ChEMBL document CHEMBL4138272, “Neuroprotective Dihydroagarofuran Sesquiterpene Derivatives from the Leaves of Tripterygium wilfordii” (2018)
